Source: US4665088A, “(E-Z)-4,5,9-trithiadodeca-1,6,11-triene 9-oxides” (The Research Foundation of State University of New York, priority 1984, dated 1987)
Read-outs that look alike come from different tables or passages of the source.

Tests used:
Type in all cases: cell-based
[1] = test system: ADP-induced platelet aggregation (platelet rich, citrated, human blood plasma); test: Inhibition of ADP-induced aggregation of platelets in platelet rich, citrated human blood plasma; details: ADP (10 μmole), read-out: ID50 (the source's name)
Text: Though the compounds of this invention have multiple uses such as for example as bacteriocides and fungicides, a particularly important utility is as an antithrombotic agent. Various chemicals are known to cause blood platelets to aggregate which in turn can result in blood clots in the blood circulatory system of living systems. Certain other compounds are known to prevent blood platelet aggregation and accordingly are known herein as antithrombotic agents, while other compounds prevent clotting of aggregated platelets and are called anticoagulants. Both are used in the treatment of phlebitis, stroke, coronary thrombosis and arteriosclerosis. […] The effectiveness of the suspected antithrombotic is compared to a control which has been treated with the agonist but which has not been treated with the antithrombotic and a quantitative measure of effectiveness is determined by ascertaining the concentration of suspected antithrombotic necessary to reduce by 50% the extent of platelet aggregation compared to the control. […]
Platelet rich, citrated, human blood plasma (250,000 platelets/μL) was prepared and divided into 0.45 ml. aliquots for use in determining ID50 levels of the subject compounds. The aliquots were treated with various quantities of (E)-ajoene, (Z)-ajoene, mixed (E,Z)-ajoene and mixed (E,Z)-ajoene together with prostacyclin and indomethacin. […]

[2] = test system: collagen-induced platelet aggregation (platelet rich, citrated, human blood plasma); test: Inhibition of collagen-induced aggregation of platelets in platelet rich, citrated human blood plasma
Text: (§1) Though the compounds of this invention have multiple uses such as for example as bacteriocides and fungicides, a particularly important utility is as an antithrombotic agent. Various chemicals are known to cause blood platelets to aggregate which in turn can result in blood clots in the blood circulatory system of living systems. Certain other compounds are known to prevent blood platelet aggregation and accordingly are known herein as antithrombotic agents, while other compounds prevent clotting of aggregated platelets and are called anticoagulants. Both are used in the treatment of phlebitis, stroke, coronary thrombosis and arteriosclerosis. In a typical test to determine antithrombotic activity, the suspected antithrombotic chemical is mixed with a suspension of blood platelets, incubated for a few minutes, and then the suspension is treated with a known amount of a known agonist (agent inducing aggregation). The effectiveness of the suspected antithrombotic is compared to a control which has been treated with the agonist but which has not been treated with the antithrombotic and a quantitative measure of effectiveness is determined by ascertaining the concentration of suspected antithrombotic necessary to reduce by 50% the extent of platelet aggregation compared to the control. This measurement is termed the ID50 of the antithrombotic. Typical agonists include collagen and ADP (adenosine diphosphate).
Platelet rich, citrated, human blood plasma (250,000 platelets/μL) was prepared and divided into 0.45 ml. aliquots for use in determining ID50 levels of the subject compounds. The aliquots were treated with various quantities of (E)-ajoene, (Z)-ajoene, mixed (E,Z)-ajoene and mixed (E,Z)-ajoene together with prostacyclin and indomethacin. A control was maintained free of antithrombotic. The thus treated aliquots were pre-incubated by maintaining in an aggregometer cuvette for 2 minutes at 37° C. with stirring (950 RPM). Each aliquot was then further treated with an appropriate amount of ADP (10 μmole) or collagen (1 μg/ml or 2 μg/ml). Aggregation in each aliquot was monitored for a period of 3-5 minutes and percentage aggregation was quantitated by a dual channel aggregometer which ascertained percent aggregation by comparison against a control of light transmittance through the sample.

platelet aggregation = test: Antithrombotic/anticoagulant activity (general statement); details: for antithrombotic activity when combined with the compounds of the invention: combined with the compounds of the instant claimed invention
Text: as §1

[3] = COLLAGEN (2 μg/ml), read-out: ID50 (the source's name)
[4] = COLLAGEN (1 μg/ml), (E,Z)-ajoene 70:30 together with Prostacyclin (aliquot 5), read-out: ID50 (the source's name)
[5] = COLLAGEN (1 μg/ml), antithrombotic alone, read-out: ID50 (the source's name)

Compound | IC50 [1] | IC50 [2, 3] | IC50 [2, 4] | IC50 [2, 5] | antithrombotic activity when combined with the compounds of the invention (platelet aggregation) | also measured
COc1ccc2c(c1)c(CC(=O)O)c(C)n2C(=O)c1ccc(Cl)cc1 [Indomethacin, reference compound] | – | – | – | – | particularly enhanced antithrombotic activity | IC50 ([2]; read-out: ID50): 0.2 µM
C=CCSS/C=C/C[S+]([O-])CC=C (stereo not shown) [(E)-ajoene] | 213 µM | 243 ± 90 µM | – | – | – | –

The next lines start with results.

IC50 [1] | IC50 [2, 3] | IC50 [2, 4] | IC50 [2, 5] | Compound | antithrombotic activity when combined with the compounds of the invention (platelet aggregation) | also measured
188 ± 38 µM | 196 ± 64 µM | – | – | C=CCSS/C=C\C[S+]([O-])CC=C (stereo not shown) [(Z)-ajoene] | – | –
– | – | 0.001 µM | 0.001 µM | CCCCC[C@H](O)/C=C/[C@@H]1[C@H]2C/C(=C/CCCC(=O)O)O[C@H]2C[C@H]1O [Prostacyclin, reference compound] | particularly enhanced antithrombotic activity | –
– | – | 2.3 µM | 92 µM | C=CCSSC=CC[S+]([O-])CC=C (stereo not shown) [(E,Z)-ajoene, (E,Z)-4,5,9-trithiadodeca-1,6,11-triene 9-oxide] | – | antithrombotic activity (platelet aggregation): significant antithrombotic activity; IC50 ([2]; COLLAGEN (1 μg/ml), (E,Z)-ajoene 70:30 together with Indomethacin (aliquot 7), read-out: ID50 (the source's name)): 4.5 µM
